Key:
S. aureus MRSA = test: Drug-resistance profile towards antibiotics; type: cell-based, Staphylococcus aureus; further: key: R = resistant; S = sensitive
Procedure: (§1) The resistance profiles of the microbial strains mentioned above, evaluated by the inventors and available in the literature, are reported in Tables 4 and 5 [24-26].
(§2) The activity on bacterial or fungal (yeast) strains isolated from biological samples from hospitalized or collection patients was evaluated, the nosocomial derivation of the majority of these strains characterized their resistance to different antimicrobials as reported in Tables 4 and 5.
(§3) In particular: • Klebsiella pneumoniae: represents the main opportunistic microorganism responsible for nosocomial infections and several authors report persistent biofilms of K. pneumoniae in water systems. A clinical isolate (NC5) was used to assess the actual resistance to the preparations. • Escherichia coli: the ATCC 7075 (American Type Culture Collection) strain was used. • Staphylococcus aureus Methicillin-resistantATCC BAA-811 is responsible for several suppurative infections in humans, it is often isolated in patients with prostheses. • Pseudomonas aeruginosa: in the present work a mucoid strain was tested (ATCC 15442) from the American Type Culture Collection (ATCC), known in the literature for its remarkable refractoriness to disinfectants, in particular if the strain is present in sessile form or in a state of mature biofilm. https://www.lgcstandards-atcc.org/products/all/15442.aspx?geo_country=it • Three azole-resistant clinical isolates belonging to the Candida genus were used, in particular: C. albicans clinical isolate BF1, C. krusei clinical isolate BF2 andclinical C. glabrata, isolate BF3 [1,26]. • In all the tests performed, each microbial species was cultivated according to standard growth conditions, in particular: • 1. Mueller-Hinton Agar medium (Microbiol, Uta, Cagliari), was used for the growth of E. coli, S. aureus, P. aeruginosa and K. pneumoniae. The development conditions were: in air at 37° C. • 2. Schaedler Agar and Broth (Microbiol) medium was used for the growth of S. pyogenes and S. mutans. Development conditions: in air and 5% CO2 at 37° C. • 3. Sabouraud Dextrose Agar and Broth (Microbiol), used for C. albicans, C. krusei and C. glabrata. Development conditions: in air at 37° C.

S. pyogenes = test: Drug-resistance profile towards antibiotics; type: cell-based, Streptococcus pyogenes; further: key: R = resistant; S = sensitive
Procedure: as §1, §2, §3

K. pneumoniae = test: Drug-resistance profile towards antibiotics; type: cell-based, Klebsiella pneumoniae; further: key: R = resistant; S = sensitive
Procedure: as §1, §2, §3

P. aeruginosa = test: Drug-resistance profile towards antibiotics; type: cell-based, Pseudomonas aeruginosa; further: key: R = resistant; S = sensitive
Procedure: as §1, §2, §3

E. coli = test: Drug-resistance profile towards antibiotics; type: cell-based, Escherichia coli; further: key: R = resistant; S = sensitive
Procedure: as §1, §2, §3

C. glabrata = test: Drug-resistance profile of fungal strains; type: cell-based, Candida glabrata
Procedure: as §1, §2
as §3, with “Sabouraud Dextrose Agar and Broth (Microbiol), used for C. albicans, C. krusei and C. glabrata. Development conditions: in air at 37° C.” left out

C. krusei = test: Drug-resistance profile of fungal strains; type: cell-based, Candida krusei
Procedure: as §1, §2
as §3, with “Sabouraud Dextrose Agar and Broth (Microbiol), used for C. albicans, C. krusei and C. glabrata. Development conditions: in air at 37° C.” left out

C. albicans = test: Drug-resistance profile of fungal strains; type: cell-based, Candida albicans
Procedure: as §1, §2
as §3, with “Sabouraud Dextrose Agar and Broth (Microbiol), used for C. albicans, C. krusei and C. glabrata. Development conditions: in air at 37° C.” left out

With `CO[C@H]1/C=C/O[C@@]2(C)Oc3c(C)c(O)c4c(O)c(c(/C=N/N5CCN(C)CC5)c(O)c4c3C2=O)NC(=O)/C(C)=C\C=C\[C@H](C)[C@H](O)[C@@H](C)[C@@H](O)[C@@H](C)[C@H](OC(C)=O)[C@@H]1C` [Rifampicin] the Drug-resistance profile (S. aureus MRSA) was “S” and the Drug-resistance profile (S. pyogenes) was “S”.

For `CC1(C)S[C@@H]2[C@H](NC(=O)Cc3ccccc3)C(=O)N2[C@H]1C(=O)O` [Benzylpenicillin], the Drug-resistance profile (S. aureus MRSA) was “R”.

In the case of `CCCCCCCCCC(=O)N[C@@H](Cc1c[nH]c2ccccc12)C(=O)N[C@H](CC(N)=O)C(=O)N[C@@H](CC(=O)O)C(=O)N[C@@H]1C(=O)NCC(=O)N[C@@H](CCCN)C(=O)N[C@@H](CC(=O)O)C(=O)N[C@H](C)C(=O)N[C@@H](CC(=O)O)C(=O)NCC(=O)N[C@H](CO)C(=O)N[C@@H]([C@H](C)CC(=O)O)C(=O)N[C@@H](CC(=O)c2ccccc2N)C(=O)O[C@@H]1C` [Daptomycin], the Drug-resistance profile (S. aureus MRSA) was “S”.

With `C[C@@H](O)[C@H]1C(=O)N2C(C(=O)O)=C(SCCN=CN)C[C@H]12` [Imipenem] the Drug-resistance profile (K. pneumoniae) was “S” and the Drug-resistance profile (P. aeruginosa) was “S”.

`CC(=O)O[C@H]1C[C@@]2(C)[C@@H](C[C@@H](O)[C@H]3[C@@]4(C)CC[C@@H](O)[C@@H](C)[C@@H]4CC[C@@]32C)/C1=C(\CCC=C(C)C)C(=O)O` [Fusidic acid] was tested, and the Drug-resistance profile (S. aureus MRSA) was “S” and the Drug-resistance profile (S. pyogenes) was “S”.

With `CC(C)(O/N=C(\C(=O)N[C@@H]1C(=O)N2C(C(=O)[O-])=C(C[n+]3ccccc3)CS[C@H]12)c1csc(N)n1)C(=O)O` [Ceftazidime] the Drug-resistance profile (K. pneumoniae) was “S”, the Drug-resistance profile (P. aeruginosa) was “S” and the Drug-resistance profile (E. coli) was “S”.

`C[C@@H](O)[C@H]1C(=O)N2C(C(=O)O)=C(S[C@@H]3CN[C@H](C(=O)Nc4cccc(C(=O)O)c4)C3)[C@H](C)[C@H]12` [Ertapenem] was tested, and the Drug-resistance profile (K. pneumoniae) was “R”, the Drug-resistance profile (P. aeruginosa) was “R” and the Drug-resistance profile (E. coli) was “S”.

With Trimethoprim-sulfamethoxazole the Drug-resistance profile (K. pneumoniae) was “R”, the Drug-resistance profile (P. aeruginosa) was “R” and the Drug-resistance profile (S. aureus MRSA) was “S”. The Drug-resistance profile (S. pyogenes) was “R”.

With `CO/N=C(\C(=O)N[C@@H]1C(=O)N2C(C(=O)[O-])=C(C[N+]3(C)CCCC3)CS[C@H]12)c1csc(N)n1` [Cefepime] the Drug-resistance profile (K. pneumoniae) was “S” and the Drug-resistance profile (P. aeruginosa) was “S”.

For Teicoplanin, the Drug-resistance profile (S. aureus MRSA) was “S”.

`CCC[C@@H]1C[C@@H](C(=O)N[C@@H]([C@H]2O[C@H](SC)[C@H](O)[C@@H](O)[C@H]2O)[C@H](C)Cl)N(C)C1` [Clindamycin] was tested, and the Drug-resistance profile (S. aureus MRSA) was “S” and the Drug-resistance profile (S. pyogenes) was “S”.

In the case of `Cc1onc(-c2ccccc2)c1C(=O)N[C@@H]1C(=O)N2[C@@H]1SC(C)(C)[C@@H]2C(=O)O` [Oxacillin], the Drug-resistance profile (S. aureus MRSA) was “S” and the Drug-resistance profile (S. pyogenes) was “R”.

With `C[C@H]1COc2c(N3CCN(C)CC3)c(F)cc3c(=O)c(C(=O)O)cn1c23` [Levofloxacin] the Drug-resistance profile (S. aureus MRSA) was “S” and the Drug-resistance profile (S. pyogenes) was “S”.

With `C[C@@H](O)[C@H]1C(=O)N2C(C(=O)O)=C(S[C@@H]3CN[C@H](C(=O)N(C)C)C3)[C@H](C)[C@H]12` [Meropenem] the Drug-resistance profile (K. pneumoniae) was “S”, the Drug-resistance profile (P. aeruginosa) was “S” and the Drug-resistance profile (E. coli) was “S”.

Gentamicin was tested, and the Drug-resistance profile (K. pneumoniae) was “S”, the Drug-resistance profile (P. aeruginosa) was “S” and the Drug-resistance profile (S. aureus MRSA) was “S”. For the same molecule, the Drug-resistance profile (S. pyogenes) was “S”.

In the case of `O=C(O)c1cn(C2CC2)c2cc(N3CCNCC3)c(F)cc2c1=O` [Ciprofloxacin], the Drug-resistance profile (K. pneumoniae) was “S” and the Drug-resistance profile (P. aeruginosa) was “R”.

In the case of `CN(C)[C@@H]1C(O)=C(C(N)=O)C(=O)[C@@]2(O)C(O)=C3C(=O)c4c(O)cccc4[C@@](C)(O)[C@H]3C[C@@H]12` [Tetracycline], the Drug-resistance profile (S. aureus MRSA) was “S”.

`CO/N=C(\C(=O)N[C@@H]1C(=O)N2C(C(=O)O)=C(COC(C)=O)CS[C@H]12)c1csc(N)n1` [Cefotaxime] was tested, and the Drug-resistance profile (E. coli) was “S”.

With `CCO/N=C(\C(=O)N[C@@H]1C(=O)N2C(C(=O)[O-])=C(Sc3nc(-c4cc[n+](C)cc4)cs3)CS[C@H]12)c1nsc(N)n1` [Ceftaroline] the Drug-resistance profile (S. aureus MRSA) was “S”.

With `CN(C)c1cc(NC(=O)CNC(C)(C)C)c(O)c2c1C[C@H]1C[C@H]3[C@H](N(C)C)C(O)=C(C(N)=O)C(=O)[C@@]3(O)C(O)=C1C2=O` [Tigecycline] the Drug-resistance profile (S. aureus MRSA) was “S” and the Drug-resistance profile (S. pyogenes) was “S”.

In the case of `CC(=O)N1CCN(c2ccc(OCC3COC(Cn4ccnc4)(c4ccc(Cl)cc4Cl)O3)cc2)CC1` (stereo not shown) [Ketoconazole], the Drug-resistance profile (C. glabrata; KTC reference values) was “R (KTC: R > 1 μg/mL)”, the Drug-resistance profile (C. krusei; KTC reference values) was “R (KTC: R > 1 μg/mL)” and the Drug-resistance profile (C. albicans; KTC reference values) was “R (KTC: R > 1 μg/mL)”.

In the case of Piperacillin-tazobactam, the Drug-resistance profile (K. pneumoniae) was “S”, the Drug-resistance profile (P. aeruginosa) was “S” and the Drug-resistance profile (E. coli) was “S”.

With `CC[C@H]1OC(=O)[C@H](C)[C@@H](O[C@H]2C[C@@](C)(OC)[C@@H](O)[C@H](C)O2)[C@H](C)[C@@H](O[C@@H]2O[C@H](C)C[C@H](N(C)C)[C@H]2O)[C@](C)(O)C[C@@H](C)C(=O)[C@H](C)[C@@H](O)[C@]1(C)O` [Erythromycin] the Drug-resistance profile (S. aureus MRSA) was “R” and the Drug-resistance profile (S. pyogenes) was “S”.

`CN[C@H](CC(C)C)C(=O)N[C@H]1C(=O)N[C@@H](CC(N)=O)C(=O)N[C@H]2C(=O)N[C@H]3C(=O)N[C@H](C(=O)N[C@H](C(=O)O)c4cc(O)cc(O)c4-c4cc3ccc4O)[C@H](O)c3ccc(c(Cl)c3)Oc3cc2cc(c3O[C@@H]2O[C@H](CO)[C@@H](O)[C@H](O)[C@H]2O[C@H]2C[C@](C)(N)[C@H](O)[C@H](C)O2)Oc2ccc(cc2Cl)[C@H]1O` [Vancomycin] was tested, and the Drug-resistance profile (S. aureus MRSA) was “S” and the Drug-resistance profile (S. pyogenes) was “S”.

Amoxicillin/ac. Clavulanic was tested, and the Drug-resistance profile (E. coli) was “R”.

`C[C@@H](c1ncncc1F)[C@](O)(Cn1cncn1)c1ccc(F)cc1F` [Voriconazole] was tested, and the Drug-resistance profile (C. glabrata; VRC reference values) was “R (VRC: R > 4 μg/mL)”, the Drug-resistance profile (C. krusei; VRC reference values) was “R (VRC: R > 4 μg/mL)” and the Drug-resistance profile (C. albicans; VRC reference values) was “R (VRC: R > 4 μg/mL)”.

With Colistin the Drug-resistance profile (K. pneumoniae) was “S” and the Drug-resistance profile (P. aeruginosa) was “S”.

For `CC(=O)NC[C@H]1CN(c2ccc(N3CCOCC3)c(F)c2)C(=O)O1` [Linezolid], the Drug-resistance profile (S. aureus MRSA) was “S” and the Drug-resistance profile (S. pyogenes) was “S”.

In the case of `OC(Cn1cncn1)(Cn1cncn1)c1ccc(F)cc1F` [Fluconazole], the Drug-resistance profile (C. glabrata; FLC reference values) was “R (FLC: R > 64 μg/mL)”, the Drug-resistance profile (C. krusei; FLC reference values) was “R (FLC: R > 64 μg/mL)” and the Drug-resistance profile (C. albicans; FLC reference values) was “R (FLC: R > 64 μg/mL)”.

With `NCC[C@H](O)C(=O)N[C@@H]1C[C@H](N)[C@@H](O[C@H]2O[C@H](CN)[C@@H](O)[C@H](O)[C@H]2O)[C@H](O)[C@H]1O[C@H]1O[C@H](CO)[C@@H](O)[C@H](N)[C@H]1O` [Amikacin] the Drug-resistance profile (K. pneumoniae) was “R”, the Drug-resistance profile (P. aeruginosa) was “S” and the Drug-resistance profile (E. coli) was “R”.

In the case of `C[C@@H]1O[C@@H]1P(=O)(O)O` [Fosfomycin], the Drug-resistance profile (K. pneumoniae) was “S” and the Drug-resistance profile (P. aeruginosa) was “R”.

Reference: patent publication US12514254B2, “Rosa canina rosehip” (priority 2020, dated 2026)
